Experimental data from ChEMBL document CHEMBL4043066, “Drug Discovery Targeting Bromodomain-Containing Protein 4” (J Med Chem, 2017).

What was measured:
[1] = Metabolic stability in CD1 mouse liver microsomes assessed as compound remaining at 1 uM after 30 mins in presence of NADPH by LC/MS analysis; type: ADME, microsome; details: read-out: Stability
[2] = Metabolic stability in human liver microsomes assessed as compound remaining at 1 uM after 30 mins in presence of NADPH by LC/MS analysis; type: ADME, microsome; details: read-out: Stability
[3] = molecular target: T1, Bromodomain-containing protein 4 (Homo sapiens, UniProt O60885); experiment: Inhibition of His-tagged BRD4 (unknown origin) using acetyl-histone H4 as substrate after 35 mins by TR-FRET assay
CREB-binding protein = CREB-binding protein (Homo sapiens, UniProt Q92793); experiment: Inhibition of His-tagged CREBP (unknown origin) using acetyl-histone H4 as substrate after 35 mins by AlphaScreen assay
CREB-binding protein, sequence (Q92793 whole entry): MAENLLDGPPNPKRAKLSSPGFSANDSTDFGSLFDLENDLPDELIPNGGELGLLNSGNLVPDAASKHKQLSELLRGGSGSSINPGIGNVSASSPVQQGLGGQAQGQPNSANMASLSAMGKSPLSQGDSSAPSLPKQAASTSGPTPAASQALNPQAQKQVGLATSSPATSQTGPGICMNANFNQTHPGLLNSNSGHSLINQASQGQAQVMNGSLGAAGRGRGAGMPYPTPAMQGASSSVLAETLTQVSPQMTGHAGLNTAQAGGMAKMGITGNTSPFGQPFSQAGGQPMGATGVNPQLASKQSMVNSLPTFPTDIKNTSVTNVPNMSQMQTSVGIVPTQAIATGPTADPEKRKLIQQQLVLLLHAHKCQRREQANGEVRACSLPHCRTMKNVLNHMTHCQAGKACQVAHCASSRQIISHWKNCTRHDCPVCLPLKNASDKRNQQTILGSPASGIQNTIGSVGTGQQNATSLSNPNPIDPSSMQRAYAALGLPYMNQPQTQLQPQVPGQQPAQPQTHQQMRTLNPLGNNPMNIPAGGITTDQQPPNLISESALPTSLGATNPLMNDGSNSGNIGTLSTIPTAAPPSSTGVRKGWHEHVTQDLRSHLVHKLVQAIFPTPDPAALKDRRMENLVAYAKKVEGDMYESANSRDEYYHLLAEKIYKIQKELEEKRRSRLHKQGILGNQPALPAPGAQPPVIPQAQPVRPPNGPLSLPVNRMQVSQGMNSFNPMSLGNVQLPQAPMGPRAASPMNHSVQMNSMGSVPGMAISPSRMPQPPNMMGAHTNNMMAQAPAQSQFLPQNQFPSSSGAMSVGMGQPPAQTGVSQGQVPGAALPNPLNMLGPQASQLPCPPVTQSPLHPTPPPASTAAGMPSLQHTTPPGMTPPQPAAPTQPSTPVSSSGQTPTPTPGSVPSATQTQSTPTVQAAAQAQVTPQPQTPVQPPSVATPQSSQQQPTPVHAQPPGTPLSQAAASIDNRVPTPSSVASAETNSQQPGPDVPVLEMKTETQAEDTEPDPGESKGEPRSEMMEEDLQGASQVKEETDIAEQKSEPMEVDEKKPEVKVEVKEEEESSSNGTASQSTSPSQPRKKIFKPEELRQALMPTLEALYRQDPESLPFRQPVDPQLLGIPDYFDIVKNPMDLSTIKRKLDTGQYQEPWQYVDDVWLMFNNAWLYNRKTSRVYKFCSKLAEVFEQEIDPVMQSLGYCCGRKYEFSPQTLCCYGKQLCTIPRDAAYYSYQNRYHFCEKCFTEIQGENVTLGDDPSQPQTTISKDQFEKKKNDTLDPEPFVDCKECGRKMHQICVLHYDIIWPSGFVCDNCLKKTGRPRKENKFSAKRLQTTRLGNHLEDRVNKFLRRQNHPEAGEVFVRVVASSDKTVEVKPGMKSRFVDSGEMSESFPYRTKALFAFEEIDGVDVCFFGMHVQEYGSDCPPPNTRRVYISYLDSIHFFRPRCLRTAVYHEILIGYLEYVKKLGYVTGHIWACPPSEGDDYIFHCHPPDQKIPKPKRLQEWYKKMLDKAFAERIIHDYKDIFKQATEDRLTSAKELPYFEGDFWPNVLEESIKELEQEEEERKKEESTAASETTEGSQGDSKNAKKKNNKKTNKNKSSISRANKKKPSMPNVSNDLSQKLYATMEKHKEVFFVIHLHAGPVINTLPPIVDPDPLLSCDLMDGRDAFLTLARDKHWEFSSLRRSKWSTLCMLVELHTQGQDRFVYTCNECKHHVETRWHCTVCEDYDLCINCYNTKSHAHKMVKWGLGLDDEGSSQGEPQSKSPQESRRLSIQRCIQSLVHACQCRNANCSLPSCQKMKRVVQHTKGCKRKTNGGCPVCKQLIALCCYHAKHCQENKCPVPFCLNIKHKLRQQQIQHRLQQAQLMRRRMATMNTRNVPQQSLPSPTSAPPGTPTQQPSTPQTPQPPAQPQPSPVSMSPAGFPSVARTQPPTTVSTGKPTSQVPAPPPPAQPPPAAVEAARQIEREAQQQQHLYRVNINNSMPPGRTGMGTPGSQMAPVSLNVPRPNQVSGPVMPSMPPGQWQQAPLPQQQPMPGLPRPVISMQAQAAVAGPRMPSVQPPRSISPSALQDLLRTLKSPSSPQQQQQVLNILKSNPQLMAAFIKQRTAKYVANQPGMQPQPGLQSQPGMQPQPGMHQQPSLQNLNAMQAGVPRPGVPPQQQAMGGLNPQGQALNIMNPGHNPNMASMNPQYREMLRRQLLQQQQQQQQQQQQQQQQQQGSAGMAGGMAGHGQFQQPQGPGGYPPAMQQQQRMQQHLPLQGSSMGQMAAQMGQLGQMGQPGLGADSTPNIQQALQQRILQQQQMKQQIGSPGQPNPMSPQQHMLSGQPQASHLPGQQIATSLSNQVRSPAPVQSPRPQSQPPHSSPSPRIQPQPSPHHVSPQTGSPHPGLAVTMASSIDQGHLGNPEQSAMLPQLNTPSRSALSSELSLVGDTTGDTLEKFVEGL

MV4-11 [4] = experiment: Antiproliferative activity against human MV4-11 cells after 4 days by CellTiter-Glo assay; type: functional, cell-based; details: MV4-11, 96 h
[5] = molecular target: T1, Bromodomain-containing protein 4; experiment: Inhibition of His-epitope tagged BRD4 bromodomain 1 (44 to 168 residues) (unknown origin) using biotinylated histone H4 as substrate after 1 hr by AlphaScreen assay
[6] = molecular target: T1, Bromodomain-containing protein 4; experiment: Inhibition of His-epitope tagged BRD4 bromodomain 2 (333 to 460 residues) (unknown origin) using biotinylated histone H4 as substrate after 1 hr by AlphaScreen assay
MV4-11 [7] = experiment: Antiproliferative activity against human MV4-11 cells after 72 hrs by alamarBlue assay; type: functional, cell-based; details: MV4-11, 72 h
[8] = molecular target: T1, Bromodomain-containing protein 4; experiment: Inhibition of BRD4 bromodomain 1 (unknown origin) using biotinylated substrate after 1 hr by AlphaLisa assay
MV4-11 [9] = experiment: Antiproliferative activity against human MV4-11 cells; type: functional, cell-based
[10] = molecular target: T1, Bromodomain-containing protein 4; experiment: Inhibition of recombinant human His-tagged BRD4 bromodomain 1 (44 to 168 residues) expressed in Escherichia coli BL21(DE3) after 30 mins by AlphaScreen assay
MX1 [11] = experiment: Antiproliferative activity against human MX1 cells incubated for >= 72 hrs by CellTiter-Glo assay; type: functional, cell-based; details: MX1, 72 h
MV4-11 [12] = experiment: Antitumor activity against human MV4-11 cells harboring MLL-AF4 xenografted in mouse assessed as tumor growth inhibition at 1 mg/kg, po qd up to 28 days relative to control; type: functional; details: MV4-11, po, 672 h, read-out: TGI
[13] = molecular target: T1, Bromodomain-containing protein 4
Description: Displacement of Halo-tagged histone H3.3 from NanoLuc-tagged full length BRD4 (unknown origin) expressed in HCT116 cells after 18 hrs by NanoBRET assay

[14] = molecular target: T1, Bromodomain-containing protein 4; remark: listed apart in the source
Description: Displacement of Halo-tagged histone H3.3 from N-terminal NanoLuc-tagged BRD4 bromodomain 1 (44 to 168 residues) (unknown origin) expressed in HCT116 cells after 18 hrs by NanoBRET assay

[15] = molecular target: T1, Bromodomain-containing protein 4; experiment: Inhibition of recombinant human N-terminal His6-tagged BRD4 bromodomain 1 expressed in Escherichia coli BL21(DE3) using biotinylated histone peptide as substrate after 60 mins by TR-FRET assay
NCI-H187 = experiment: Antitumor activity against human NCI-H187 cells xenografted subcutaneously in mouse assessed as tumor growth inhibition at 5 mg/kg, po relative to control; type: functional; details: read-out: TGI
MT4 = experiment: Antiproliferative activity against human MT4 cells after 5 days by CellTiter-Glo assay; type: functional; details: MT4, 120 h
[16] = Antitumor activity against human JJN3R cells xenografted subcutaneously in mouse assessed as tumor growth inhibition at 1 mg/kg, po relative to control; type: functional; details: JJN-3R, read-out: TGI
[17] = molecular target: T1, Bromodomain-containing protein 4; experiment: Inhibition of His-tagged BRD4 (44 to 477 residues) (unknown origin) using acetyl-histone H4 as substrate after 35 mins by TR-FRET assay
MV4-11 [18] = experiment: Growth inhibition of human MV4-11 cells after 4 days by CellTiter-Glo assay; type: functional; details: MV4-11, 96 h
MX1 [19] = experiment: Antiproliferative activity against human MX1 cells after 72 hrs by CellTiter-Glo assay; type: functional, cell-based; details: MX1, 72 h
[20] = molecular target: T1, Bromodomain-containing protein 4; experiment: Inhibition of recombinant His-tagged BRD4 (unknown origin) using biotinylated acetyl-histone H4 as substrate by AlphaLisa assay
Mus musculus = organism: Mus musculus; experiment: Antiinflammatory activity in CD1 mouse assessed as inhibition of LPS-induced IL-6 production pretreated for 1 hr followed by LPS stimulation after 2 hrs by immunoassay relative to control; type: functional
[21] = molecular target: T1, Bromodomain-containing protein 4; experiment: Inhibition of GST-tagged BRD4 bromodomain 1 (44 to 168 residues) (unknown origin) using biotinylated acetyl-histone H4 peptide as substrate after 30 mins in dark by AlphaScreen assay
[22] = molecular target: T1, Bromodomain-containing protein 4; experiment: Inhibition of GST-tagged BRD4 (unknown origin) using biotinylated acetyl-histone H4 peptide as substrate after 30 mins by AlphaScreen assay

## COc1cc2c(cc1-c1c(C)noc1C)ncc1nc(CN3CCOCC3)n([C@H](C)COC(F)F)c12
[1]
  remaining at 0.5 h, 1 µM: 3.7%
[2]
  remaining at 0.5 h, 1 µM: 1.9%

## Cc1nn(C2CC2)c2c1[C@@H](c1ccc(Cl)cc1)N(c1cc(C)c3nnc(C)n3n1)C2=O
[3]
  IC50: < 11 nM
CREB-binding protein
  IC50: 3700 nM
MV4-11 [4]
  IC50: 3.4 nM

## CC(=O)N1c2ccc(-c3cnn([C@H]4CCNC[C@H]4F)c3)c(OCC3CCC3)c2CC[C@H]1C
[5]
  IC50: < 100 nM
[6]
  IC50: < 50 nM

## CNC(=O)N1N=C(c2ccc(N3C[C@H]4CC[C@@H](C3)O4)cc2)c2cc(OC)c(OC)cc2C[C@@H]1C
MV4-11 [7]
  IC50: 30 nM

## CCOC(=O)CC1N=C(c2ccc(Cl)cc2)c2cc(OC)ccc2-c2cn(C)c(=O)cc21 (centres undefined)
MV4-11 [7]
  EC50: 2 nM
[8]
  IC50: 3 nM

## CC1=C(C)C2C(c3ccc(Cl)cc3)=N[C@@H](CC(=O)NCCOCCOCCOCCOCCOCCOCCOCCNC(=O)C[C@@H]3N=C(c4ccc(Cl)cc4)c4c(sc(C)c4C)-n4c(C)nnc43)c3nnc(C)n3C2S1 (some centres undefined)
MV4-11 [9]
  IC50: 0.17 nM
[10]
  IC50: 3.1 nM

## CNC(=O)N1N=C(c2ccc(N3CC4(CCS4(=O)=O)C3)cc2)c2cc(OC(F)(F)F)ccc2C[C@@H]1C
MV4-11 [7]
  IC50: 30 nM

## COc1ccc(S(=O)(=O)Nc2cccc(Oc3ccc(S(C)(=O)=O)cc3-c3cn(C)c(=O)c4[nH]ccc34)c2)cc1
MX1 [11]
  EC50: 97 nM

## COc1nnc2ccc(N3CCC(c4ccc(OCCN5CCN(C)C(=O)[C@H]5C)cc4)CC3)nn12 [AZD-5153]
MV4-11 [12]
  inhibition in vivo at 1 mg/kg: 72%
[13]
  IC50: 5 nM
[14]
  IC50: 1600 nM

## Cc1nnn(C)c1-c1cnc2c3ccc(C(C)(C)O)c(F)c3n([C@H](c3ccccc3)C3CCOCC3)c2c1
[15]
  IC50: < 5 nM
NCI-H187
  inhibition in vivo at 5 mg/kg: 100%

## Cc1noc(C)c1-c1cc(-c2c(C3CC3)n[nH]c2C2CC2)c2[nH]c(=O)[nH]c2c1
MT4
  CC50: 9.1 nM

## [2H]C([2H])([2H])c1nnn(C)c1-c1cnc2c3ccc(C(C)(C)O)c(F)c3n([C@H](c3ccccc3)C3CCOCC3)c2c1
[15]
  IC50: < 5 nM
[16]
  inhibition in vivo at 1 mg/kg: 103%

## CCS(=O)(=O)Nc1cc(-c2cn(C)c(=O)c3[nH]ccc23)c(Oc2ccc(F)cc2F)cc1CN1CCOCC1
MX1 [11]
  EC50: 16 nM

## COc1ncccc1-c1c(C2CC2)c2c(n1C)C(c1ccc(Cl)cc1)N(c1cc(C)c3nnc(C)n3c1)C2=O (centres undefined)
[17]
  IC50: < 11 nM
MV4-11 [18]
  GI50: 3 nM

## Cc1noc(C)c1-c1ccc2c(c1)C(c1ccsc1)(N1CCC[C@H](N)C1)C(=O)N2 (some centres undefined)
MV4-11 [9]
  IC50: 34 nM

## Cc1cc(N2C(=O)c3c(C4CC4)cn(C4COC4)c3C2c2ccc(Cl)cc2)cn2c(C)nnc12 (centres undefined)
MV4-11 [18]
  GI50: 2.9 nM

## CCS(=O)(=O)c1ccc2c(c1)-c1cn(C)c(=O)cc1OCCCCc1cc(F)cc(F)c1O2
MX1 [19]
  EC50: 8.7 nM
[20]
  IC50: 1.3 nM
Mus musculus
  inhibition (INH): 81%

## Cc1nnc2c(NC(C)C)nc(-c3nc4cnc(N5CCOC[C@H]5C)cc4n3C(C)CC3CC3)cn12 (some centres undefined)
[21]
  IC50: 9 nM

## COc1cc2c(cc1-c1c(C)noc1C)ncc1nc(C3CCOCC3)n([C@H](C)COC(F)F)c12
[1]
  remaining at 0.5 h, 1 µM: 56%
[2]
  remaining at 0.5 h, 1 µM: 43%

## [2H]C([2H])([2H])c1nnn(C)c1-c1cnc2c3ccc(C(C)(C)O)cc3n([C@H](c3ccccc3)C3CCC(F)(F)CC3)c2c1
[15]
  IC50: < 5 nM
[16]
  inhibition in vivo at 1 mg/kg: 93%

## Cc1noc(C)c1-c1ccc2c(c1)C(O)(c1ccccc1)C(=O)N2 (centres undefined)
MV4-11 [9]
  IC50: 58 nM

## Cc1noc(C)c1-c1cc(C(O)(c2cnccn2)c2c(F)cccc2F)c2[nH]c(=O)[nH]c2c1 (centres undefined)
MT4
  CC50: 9.7 nM

## Cc1noc(C)c1-c1ccc2c(c1)C(c1ccccc1)N(CC1CCN(C)CC1)C(=O)N2 (centres undefined)
[22]
  IC50: 31 nM

## Cc1sc2c(c1C)C(c1ccc(Cl)cc1)=N[C@@H](CC(=O)OC(C)(C)C)c1nnc(C)n1-2
MV4-11 [9]
  IC50: 72 nM
